Test results: ChEMBL document CHEMBL3885881, “DrugMatrix”

Species on record: Rattus norvegicus
Assay: DrugMatrix - Regimen: Daily Repeat
Format: toxicity, organism-based, Sprague-Dawley
Set-up: regimen Daily Repeat, gender Male, age 6-8 weeks
Conditions: in vivo, po, […], route oral GAVAGE; for ABSOLUTE BASOPHIL / ABSOLUTE EOSINOPHIL / ABSOLUTE LYMPHOCYTE / ABSOLUTE MONOCYTE / ABSOLUTE SEGMENTED NEUTROPHIL / BASOPHIL / EOSINOPHIL / ERYTHROCYTE COUNT / HEMATOCRIT / HEMOGLOBIN / LEUKOCYTE COUNT / LYMPHOCYTE / MEAN CORPUSCULAR HEMOGLOBIN / MEAN CORPUSCULAR HEMOGLOBIN CONCENTRATION / MEAN CORPUSCULAR VOLUME / MONOCYTE / NEUTROPHIL / NUCLEATED RED BLOOD CELLS / PLATELET COUNT: tissue Blood; for ALANINE AMINOTRANSFERASE / ALKALINE PHOSPHATASE / ASPARTATE AMINOTRANSFERASE / BLOOD UREA NITROGEN / CARBON DIOXIDE / CHLORIDE / CHOLESTEROL / CREATINE PHOSPHOKINASE / CREATININE / GLUCOSE / LACTATE DEHYDROGENASE / LIPASE / PHOSPHORUS / POTASSIUM / SODIUM / TOTAL BILIRUBIN / TOTAL PROTEIN / URIC ACID: tissue Plasma
[1] = 100 mg/kg, dose level Low, time 7 day
[2] = 700 mg/kg, 72 h, dose level High, time 3 day
[3] = 700 mg/kg, dose level High, time 7 day

`Cc1ccc(C)c(OCCCC(C)(C)C(=O)O)c1` [GEMFIBROZIL] was tested, and the “ABSOLUTE BASOPHIL” value [1] was 0 CELLS/uL, the “ABSOLUTE EOSINOPHIL” value [1] was 45.5 CELLS/uL and the “ABSOLUTE LYMPHOCYTE” value [1] was 9460.33 CELLS/uL. The “ABSOLUTE MONOCYTE” value [1] was 128.67 CELLS/uL, the “ABSOLUTE SEGMENTED NEUTROPHIL” value [1] was 965.5 CELLS/uL and the BASOPHIL [1] was 0%. For the same molecule, the EOSINOPHIL [1] was 0.5%, the “ERYTHROCYTE COUNT” value [1] was 5.75 x10E6/uL and the HEMATOCRIT [1] was 35.7%. The HEMOGLOBIN [1] was 13.7 G/DL, the “LEUKOCYTE COUNT” value [1] was 10.6 x10E3/uL and the LYMPHOCYTE [1] was 89.83%. For the same molecule, the “MEAN CORPUSCULAR HEMOGLOBIN” value [1] was 23.82 pg, the “MEAN CORPUSCULAR HEMOGLOBIN CONCENTRATION” value [1] was 38.42 G/DL and the “MEAN CORPUSCULAR VOLUME” value [1] was 62.1 fL. For the same molecule, the MONOCYTE [1] was 1.17%, the NEUTROPHIL [1] was 8.5% and the “NUCLEATED RED BLOOD CELLS” value [1] was 0 /100WBC. The “PLATELET COUNT” value [1] was 1237.17 x10E3/uL, the “ALANINE AMINOTRANSFERASE” value [1] was 75.17 u/L and the “ALKALINE PHOSPHATASE” value [1] was 388.67 u/L. For the same molecule, the “ASPARTATE AMINOTRANSFERASE” value [1] was 80.67 u/L, the “BLOOD UREA NITROGEN” value [1] was 15.5 mg/dL and the “CARBON DIOXIDE” value [1] was 29.17 mmol/L. For the same molecule, the CHLORIDE [1] was 103.5 MEQ/L, the CHOLESTEROL [1] was 70.33 mg/dL and the “CREATINE PHOSPHOKINASE” value [1] was 220 u/L. The CREATININE [1] was 0.26 mg/dL, the GLUCOSE [1] was 138.5 mg/dL and the “LACTATE DEHYDROGENASE” value [1] was 151.33 u/L. The LIPASE [1] was 11.5 u/L, the PHOSPHORUS [1] was 10.83 mg/dL and the POTASSIUM [1] was 6.07 MEQ/L. For the same molecule, the SODIUM [1] was 145.42 MEQ/L, the “TOTAL BILIRUBIN” value [1] was 0.15 mg/dL and the “TOTAL PROTEIN” value [1] was 6.55 G/DL. For the same molecule, the “URIC ACID” value [1] was 0.9 mg/dL, the “ABSOLUTE BASOPHIL” value [2] was 0 CELLS/uL and the “ABSOLUTE EOSINOPHIL” value [2] was 123.83 CELLS/uL. The “ABSOLUTE LYMPHOCYTE” value [2] was 14360.17 CELLS/uL, the “ABSOLUTE MONOCYTE” value [2] was 300 CELLS/uL and the “ABSOLUTE SEGMENTED NEUTROPHIL” value [2] was 899.33 CELLS/uL. The BASOPHIL [2] was 0%, the EOSINOPHIL [2] was 0.83% and the “ERYTHROCYTE COUNT” value [2] was 5.5 x10E6/uL. The HEMATOCRIT [2] was 34.9%, the HEMOGLOBIN [2] was 13.82 G/DL and the “LEUKOCYTE COUNT” value [2] was 15.68 x10E3/uL. The LYMPHOCYTE [2] was 91.67%, the “MEAN CORPUSCULAR HEMOGLOBIN” value [2] was 25.13 pg and the “MEAN CORPUSCULAR HEMOGLOBIN CONCENTRATION” value [2] was 39.6 G/DL. The “MEAN CORPUSCULAR VOLUME” value [2] was 63.5 fL, the MONOCYTE [2] was 1.83% and the NEUTROPHIL [2] was 5.67%. The “NUCLEATED RED BLOOD CELLS” value [2] was 0 /100WBC, the “PLATELET COUNT” value [2] was 1197.17 x10E3/uL and the “ALANINE AMINOTRANSFERASE” value [2] was 74.67 u/L. The “ALKALINE PHOSPHATASE” value [2] was 606 u/L, the “ASPARTATE AMINOTRANSFERASE” value [2] was 80.5 u/L and the “BLOOD UREA NITROGEN” value [2] was 11.33 mg/dL. The “CARBON DIOXIDE” value [2] was 30.67 mmol/L, the CHLORIDE [2] was 101.5 MEQ/L and the CHOLESTEROL [2] was 61 mg/dL. The “CREATINE PHOSPHOKINASE” value [2] was 247.5 u/L, the CREATININE [2] was 0.21 mg/dL and the GLUCOSE [2] was 143.5 mg/dL. The “LACTATE DEHYDROGENASE” value [2] was 254.17 u/L, the LIPASE [2] was 9.67 u/L and the PHOSPHORUS [2] was 8.5 mg/dL. For the same molecule, the POTASSIUM [2] was 6.29 MEQ/L, the SODIUM [2] was 141.78 MEQ/L and the “TOTAL BILIRUBIN” value [2] was 0.32 mg/dL. The “TOTAL PROTEIN” value [2] was 5.85 G/DL, the “URIC ACID” value [2] was 1.33 mg/dL and the “ABSOLUTE BASOPHIL” value [3] was 0 CELLS/uL. The “ABSOLUTE EOSINOPHIL” value [3] was 34.5 CELLS/uL, the “ABSOLUTE LYMPHOCYTE” value [3] was 11212.67 CELLS/uL and the “ABSOLUTE MONOCYTE” value [3] was 304.17 CELLS/uL. For the same molecule, the “ABSOLUTE SEGMENTED NEUTROPHIL” value [3] was 1732 CELLS/uL, the BASOPHIL [3] was 0% and the EOSINOPHIL [3] was 0.5%. For the same molecule, the “ERYTHROCYTE COUNT” value [3] was 5.46 x10E6/uL, the HEMATOCRIT [3] was 32.9% and the HEMOGLOBIN [3] was 12.75 G/DL. The “LEUKOCYTE COUNT” value [3] was 13.28 x10E3/uL, the LYMPHOCYTE [3] was 85.5% and the “MEAN CORPUSCULAR HEMOGLOBIN” value [3] was 23.43 pg. For the same molecule, the “MEAN CORPUSCULAR HEMOGLOBIN CONCENTRATION” value [3] was 38.82 G/DL, the “MEAN CORPUSCULAR VOLUME” value [3] was 60.37 fL and the MONOCYTE [3] was 2.17%. The NEUTROPHIL [3] was 11.83%, the “NUCLEATED RED BLOOD CELLS” value [3] was 0 /100WBC and the “PLATELET COUNT” value [3] was 1336.17 x10E3/uL. The “ALANINE AMINOTRANSFERASE” value [3] was 90.83 u/L, the “ALKALINE PHOSPHATASE” value [3] was 504.17 u/L and the “ASPARTATE AMINOTRANSFERASE” value [3] was 94.83 u/L. The “BLOOD UREA NITROGEN” value [3] was 12.17 mg/dL, the “CARBON DIOXIDE” value [3] was 31.17 mmol/L and the CHLORIDE [3] was 101.17 MEQ/L. The CHOLESTEROL [3] was 60.5 mg/dL, the “CREATINE PHOSPHOKINASE” value [3] was 391.67 u/L and the CREATININE [3] was 0.29 mg/dL. For the same molecule, the GLUCOSE [3] was 135.67 mg/dL, the “LACTATE DEHYDROGENASE” value [3] was 275.5 u/L and the LIPASE [3] was 12 u/L. For the same molecule, the PHOSPHORUS [3] was 9.5 mg/dL, the POTASSIUM [3] was 5.98 MEQ/L and the SODIUM [3] was 142.85 MEQ/L. The “TOTAL BILIRUBIN” value [3] was 0.22 mg/dL, the “TOTAL PROTEIN” value [3] was 6.58 G/DL and the “URIC ACID” value [3] was 0.87 mg/dL.
